Where “and” joins values, the source holds several entries; their conditions need not be identical. Identical values can stand only once. Inconclusive results and toxic doses are left out.
Test system: L1210 leukemia ip in BDF1 mice, survival T/C
Experiment: NCI In Vivo Anticancer Drug Screen. Data for tumor model L1210 Leukemia (intraperitoneal) in B6D2F1 (BDF1) mice
Conditions: endpoint: mean survival time, higher = longer survival
Outline: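 Transplanted-tumor mice were given test agent; controls received vehicle only. Survival readings from the two groups were divided (treated over control).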

Cc1nccn1CC(=O)c1ccccc1
T/C (dose: 25.0 mg/kg/injection, schedule: Q01DX001 (ip), vehicle: Klucel (hydroxypropylcellulose) (HPC)): 102 % of control | T/C (dose: 25.0 mg/kg/injection, schedule: Q01DX009 (ip), vehicle: Klucel (hydroxypropylcellulose) (HPC)): 91 % of control | T/C (dose: 25.0 mg/kg/injection, schedule: Q04DX003 (ip), vehicle: Klucel (hydroxypropylcellulose) (HPC)): 100 % of control | T/C (dose: 50.0 mg/kg/injection, schedule: Q01DX001 (ip), vehicle: Klucel (hydroxypropylcellulose) (HPC)): 113 % of control | T/C (dose: 50.0 mg/kg/injection, schedule: Q01DX009 (ip), vehicle: Klucel (hydroxypropylcellulose) (HPC)): 94 % of control and 108 % of control | T/C (dose: 50.0 mg/kg/injection, schedule: Q04DX003 (ip), vehicle: Klucel (hydroxypropylcellulose) (HPC)): 103 % of control | T/C (dose: 100.0 mg/kg/injection, schedule: Q01DX001 (ip), vehicle: Klucel (hydroxypropylcellulose) (HPC)): 95 % of control | T/C (dose: 100.0 mg/kg/injection, schedule: Q01DX009 (ip), vehicle: Klucel (hydroxypropylcellulose) (HPC)): 97 % of control | T/C (dose: 100.0 mg/kg/injection, schedule: Q04DX002 (ip), vehicle: Klucel (hydroxypropylcellulose) (HPC)): 96 % of control and 106 % of control | T/C (dose: 100.0 mg/kg/injection, schedule: Q04DX003 (ip), vehicle: Klucel (hydroxypropylcellulose) (HPC)): 94 % of control | T/C (dose: 200.0 mg/kg/injection, schedule: Q04DX002 (ip), vehicle: Klucel (hydroxypropylcellulose) (HPC)): 101 % of control

CC(=O)N(c1ccccc1)c1ccc([N+](=O)[O-])cc1[N+](=O)[O-]
T/C (dose: 100.0 mg/kg/injection, schedule: Q01DX001 (ip), vehicle: carboxymethylcellulose (CMC)): 107 % of control | T/C (dose: 177.0 mg/kg/injection, schedule: Q01DX001 (ip), vehicle: carboxymethylcellulose (CMC)): 94 % of control and 115 % of control | T/C (dose: 200.0 mg/kg/injection, schedule: Q01DX001 (ip), vehicle: carboxymethylcellulose (CMC)): 96 % of control | T/C (dose: 266.0 mg/kg/injection, schedule: Q01DX001 (ip), vehicle: carboxymethylcellulose (CMC)): 97 % of control and 103 % of control | T/C (dose: 400.0 mg/kg/injection, schedule: Q01DX001 (ip), vehicle: carboxymethylcellulose (CMC)): 97 % of control and 100 % of control | T/C (dose: 600.0 mg/kg/injection, schedule: Q01DX001 (ip), vehicle: carboxymethylcellulose (CMC)): 100 % of control and 105 % of control

OC(CN(CCCl)CCCl)C(O)C(O)C(O)CN(CCCl)CCCl (configuration not stated)
T/C (dose: 0.06 mg/kg/injection, schedule: Q01DX Z (ip), vehicle: saline): 102 % of control | T/C (dose: 0.1 mg/kg/injection, schedule: Q01DX Z (ip), vehicle: saline): 102 % of control | T/C (dose: 0.15 mg/kg/injection, schedule: Q01DX Z (ip), vehicle: saline): 105 % of control | T/C (dose: 0.23 mg/kg/injection, schedule: Q01DX Z (ip), vehicle: saline): 110 % of control | T/C (dose: 0.25 mg/kg/injection, schedule: Q01DX Z (ip), vehicle: saline): 103 % of control | T/C (dose: 0.35 mg/kg/injection, schedule: Q01DX001 (ip), vehicle: saline): 150 % of control | T/C (dose: 0.6 mg/kg/injection, schedule: Q01DX Z (ip), vehicle: carboxymethylcellulose (CMC)): 108 % of control | T/C (dose: 0.8 mg/kg/injection, schedule: Q01DX001 (ip), vehicle: saline): 154 % of control | T/C (dose: 0.8 mg/kg/injection, schedule: Q01DX Z (ip), vehicle: saline): 153 % of control and 170 % of control | T/C (dose: 0.9 mg/kg/injection, schedule: Q01DX Z (ip), vehicle: carboxymethylcellulose (CMC)): 102 % of control | T/C (dose: 1.0 mg/kg/injection, schedule: Q01DX001 (ip), vehicle: saline): 122 % of control | T/C (dose: 1.35 mg/kg/injection, schedule: Q01DX Z (ip), vehicle: carboxymethylcellulose (CMC)): 96 % of control | T/C (dose: 1.9 mg/kg/injection, schedule: Q01DX001 (ip), vehicle: saline): 158 % of control | T/C (dose: 2.0 mg/kg/injection, schedule: Q01DX001 (ip), vehicle: saline): 174 % of control | T/C (dose: 2.0 mg/kg/injection, schedule: Q01DX Z (ip), vehicle: saline): 155 % of control and 188 % of control | T/C (dose: 2.03 mg/kg/injection, schedule: Q01DX Z (ip), vehicle: carboxymethylcellulose (CMC)): 118 % of control | T/C (dose: 4.0 mg/kg/injection, schedule: Q01DX001 (ip), vehicle: saline): 152 % of control | T/C (dose: 4.0 mg/kg/injection, schedule: Q01DX Z (ip), vehicle: saline): 117 % of control | T/C (dose: 5.0 mg/kg/injection, schedule: Q01DX001 (ip), vehicle: saline): 194 % of control | T/C (dose: 6.7 mg/kg/injection, schedule: Q01DX Z (ip), vehicle: saline): 118 % of control | T/C (dose: 8.0 mg/kg/injection, schedule: Q01DX001 (ip), vehicle: saline): 97 % of control

CCc1ccccc1Nc1cc(=O)[nH]c(=O)[nH]1
T/C (dose: 37.5 mg/kg/injection, schedule: Q01DX001 (ip), vehicle: Klucel (hydroxypropylcellulose) (HPC)): 91 % of control | T/C (dose: 75.0 mg/kg/injection, schedule: Q01DX001 (ip), vehicle: Klucel (hydroxypropylcellulose) (HPC)): 87 % of control | T/C (dose: 150.0 mg/kg/injection, schedule: Q01DX001 (ip), vehicle: Klucel (hydroxypropylcellulose) (HPC)): 93 % of control

COc1cc2ccc3c(c2cc1OC)C=NCC3
T/C (dose: 1.56 mg/kg/injection, schedule: Q04DX003 (ip), vehicle: saline): 107 % of control | T/C (dose: 3.13 mg/kg/injection, schedule: Q01DX009 (ip), vehicle: saline): 109 % of control | T/C (dose: 3.13 mg/kg/injection, schedule: Q04DX003 (ip), vehicle: saline): 102 % of control | T/C (dose: 6.25 mg/kg/injection, schedule: Q01DX009 (ip), vehicle: saline): 105 % of control | T/C (dose: 6.25 mg/kg/injection, schedule: Q04DX003 (ip), vehicle: saline): 97 % of control | T/C (dose: 12.5 mg/kg/injection, schedule: Q04DX003 (ip), vehicle: saline): 87 % of control

— PubChem BioAssay AID248 (DTP/NCI, 2004)
